Laboratory results as given in US20240270821A1, “GIP/GLP1/GCG TRI-RECEPTOR AGONISTS AND USES THEREOF” (priority 2023, published 2024).
Starred links: 1 amine or outer side, 2 acyl side, 3 side chain; linkers in the order of their positions; H or OH if unused. Non-standard residues stand in square brackets, D forms with d. Groups on a side chain read outwards from the residue. *: point of attachment. C18 diacid = O=C(O)CCCCCCCCCCCCCCCCC(=O)*; γGlu = O=C(O)[C@H](CCC(=O)[*:2])N[*:1]; 4Pal = N[C@@H](Cc1ccncc1)C(=O)O; αMeL = CC(C)C[C@](C)(N)C(=O)O; Orn = NCCC[C@H](N)C(=O)O; AEEA = NCCOCCOCC(=O)O; Aib = CC(C)(N)C(=O)O

How the values were obtained:
Type in all cases: cell-based
hGIPR [1] = biological target: T1, hGIPR (Homo sapiens, UniProt P48546); test: Functional cAMP activity in the presence of 1% HSA; details: read-out: cAMP Rel EC50, hGIPR
T1 sequence (P48546 22-466): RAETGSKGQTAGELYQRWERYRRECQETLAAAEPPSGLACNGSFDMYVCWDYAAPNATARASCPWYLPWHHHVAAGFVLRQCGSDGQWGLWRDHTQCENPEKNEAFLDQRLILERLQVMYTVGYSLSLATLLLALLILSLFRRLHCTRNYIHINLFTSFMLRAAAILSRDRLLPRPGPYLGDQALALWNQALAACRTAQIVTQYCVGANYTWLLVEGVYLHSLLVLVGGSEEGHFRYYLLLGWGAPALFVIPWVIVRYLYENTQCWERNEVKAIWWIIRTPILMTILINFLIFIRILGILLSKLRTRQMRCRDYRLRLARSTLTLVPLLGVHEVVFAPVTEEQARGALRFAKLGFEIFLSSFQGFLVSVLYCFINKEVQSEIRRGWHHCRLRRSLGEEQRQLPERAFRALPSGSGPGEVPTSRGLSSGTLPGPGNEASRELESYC

hGIPR [2] = biological target: T1, hGIPR; test: Functional cAMP activation in the presence of 0.1% casein (no HSA); details: in the presence of 0.1% casein (no HSA); geometric mean; read-out: Relative cAMP EC50, hGIPR;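 for Relative cAMP EC50, hGIPR: intracellular cAMP rise after 30 min at 37 °C read by HTRF against a standard curve, scaled between buffer alone (0%) and top control ligand concentration (100%), four-parameter fit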;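 for Relative cAMP EC50, hGLP-1R: intracellular cAMP rise after 30 min at 37 °C read by HTRF, normalized between buffer only (0%) and maximal control ligand (100%), four-parameter variable-slope fit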;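 for Relative cAMP EC50, hGcgR: intracellular cAMP rise after 30 min at 37 °C, read by HTRF against a cAMP standard curve, scaled from buffer only (0%) to maximal control ligand response (100%)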
hGcgR = hGcgR (Homo sapiens, UniProt P47871); test: as above; details: in the presence of 0.1% casein (no HSA); geometric mean; read-out: Relative cAMP EC50, hGcgR;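 note: intracellular cAMP rise after 30 min at 37 °C, read by HTRF against a cAMP standard curve, scaled from buffer only (0%) to maximal control ligand response (100%)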
hGLP-1R [3] = biological target: T2, hGLP-1R (Homo sapiens, UniProt P43220); test: as above; details: in the presence of 0.1% casein (no HSA); geometric mean; read-out: Relative cAMP EC50, hGLP-1R;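 note: intracellular cAMP rise after 30 min at 37 °C read by HTRF, normalized between buffer only (0%) and maximal control ligand (100%), four-parameter variable-slope fit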
human GcgR = human GcgR (Homo sapiens, UniProt P47871); test: Functional cAMP activity in the presence of 1% HSA; details: read-out: cAMP Rel EC50, hGcgR
hGLP-1R [4] = biological target: T2, hGLP-1R; test: Functional cAMP activity in the presence of 1% HSA; details: read-out: cAMP Rel EC50, hGLP-1R

Sequence of hGcgR (P47871 26-477): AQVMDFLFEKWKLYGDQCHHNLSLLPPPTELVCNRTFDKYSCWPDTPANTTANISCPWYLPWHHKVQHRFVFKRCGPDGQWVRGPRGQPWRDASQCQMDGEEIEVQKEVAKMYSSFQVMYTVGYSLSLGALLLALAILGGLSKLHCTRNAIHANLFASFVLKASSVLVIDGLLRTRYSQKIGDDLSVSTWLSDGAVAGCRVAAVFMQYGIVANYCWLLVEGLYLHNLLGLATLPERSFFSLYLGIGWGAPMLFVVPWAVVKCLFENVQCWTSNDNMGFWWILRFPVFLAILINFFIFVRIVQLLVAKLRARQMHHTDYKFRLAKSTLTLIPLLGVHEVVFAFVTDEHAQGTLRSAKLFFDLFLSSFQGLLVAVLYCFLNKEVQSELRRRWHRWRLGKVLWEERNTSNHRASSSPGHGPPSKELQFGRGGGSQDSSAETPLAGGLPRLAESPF
Sequence of human GcgR (P47871 26-477): as above
T2 sequence (P43220 24-463): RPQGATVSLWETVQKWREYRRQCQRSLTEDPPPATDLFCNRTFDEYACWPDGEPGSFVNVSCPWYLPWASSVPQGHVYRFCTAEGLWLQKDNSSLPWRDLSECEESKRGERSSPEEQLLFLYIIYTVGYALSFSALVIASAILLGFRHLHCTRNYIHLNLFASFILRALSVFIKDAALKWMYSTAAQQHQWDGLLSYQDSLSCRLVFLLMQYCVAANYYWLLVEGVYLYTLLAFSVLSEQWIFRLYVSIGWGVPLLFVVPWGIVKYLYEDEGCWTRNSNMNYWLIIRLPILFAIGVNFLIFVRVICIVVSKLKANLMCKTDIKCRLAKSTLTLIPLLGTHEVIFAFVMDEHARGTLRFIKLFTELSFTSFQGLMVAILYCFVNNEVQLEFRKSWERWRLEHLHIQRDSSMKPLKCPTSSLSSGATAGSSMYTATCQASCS

Substance | EC50 (hGIPR [1]) [nM] | EC50 (hGIPR [2]) [nM] | EC50 (hGcgR) [nM] | EC50 (hGLP-1R [3]) [nM] | EC50 (human GcgR) [nM] | EC50 (hGLP-1R [4]) [nM]
H-Y[Aib]QGTFTSDFS[Orn][αMeL]LDKK([AEEA-AEEA-γGlu-C18 diacid])AQ[Aib]AFIEWLLEGGHSSGAPPPGGE-NH2 [Example 271] | 15.7 | 0.152 | 8.51 | 5 | 2680 | 887
H-Y[Aib]QGTFTSDFS[Orn][αMeL]LDKK([AEEA-AEEA-γGlu-C18 diacid])AQ[Aib]AFIEYLLE[Aib]GESSGAPPPSGT-NH2 [Example 180] | 24 | 0.14 | 2.44 | 5.08 | 1320 | 891
H-Y[Aib]QGTFTSDFS[Orn][αMeL]LDKK([AEEA-AEEA-γGlu-C18 diacid])AQ[Aib]AFIEYLLE[Aib]GPSSGAPPPEGS-NH2 [Example 194] | 19.7 | 0.212 | 4.32 | 4.69 | 813 | 697
H-Y[Aib]QGTFTSDFS[Orn][αMeL]LDKK([AEEA-AEEA-γGlu-C18 diacid])AQ[Aib]AFIEYLLE[Aib]GPSSGEPPPEGS-NH2 [Example 195] | 28.8 | 0.145 | 3.1 | 6.13 | 605 | 829
H-Y[Aib]QGTFTSDFS[Orn][αMeL]LDKK([AEEA-AEEA-γGlu-C18 diacid])AQ[Aib]AFIEYLLE[dA]GPSSGEPPPSGT-NH2 [Example 156] | 25.8 | 0.208 | 3.62 | 3.37 | 1520 | 695
H-Y[Aib]QGTFTSDFS[Orn][αMeL]LDKK([AEEA-AEEA-γGlu-C18 diacid])AQ[Aib]AFIEYLLE[dA]GPSSG[4Pal]PPPSGH-NH2 [Example 257] | 21 | 0.135 | 7.36 | 2.66 | 1210 | 388
H-Y[Aib]QGTFTSDFS[Orn][αMeL]LDKK([AEEA-AEEA-γGlu-C18 diacid])AQ[Aib]AFIEYLLE[dA]GPSSG[4Pal]PPPSG[4Pal]-NH2 [Example 258] | 23.3 | 0.154 | 7.15 | 2.71 | 1280 | 492
H-Y[Aib]QGTFTSDFS[Orn][αMeL]LDKK([AEEA-γGlu-C18 diacid])AQ[Aib]AFIEWLLEGGESSGEPPPSGE-NH2 [Example 123] | 94.6 | 0.531 | 4.55 | 4.82 | 1740 | 1500
H-Y[Aib]QGTFTSDFS[Orn][αMeL]LDKK([AEEA-γGlu-C18 diacid])AQ[Aib]AFIEWLLEGGHSSGAPPPSGH-NH2 [Example 269] | 21.9 | 0.288 | 7.69 | 3.23 | 1100 | 428
H-Y[Aib]QGTFTSDFS[Orn][αMeL]LDKK([AEEA-γGlu-C18 diacid])AQ[Aib]AFIEWLLEGGHSSGAPPPSGS-NH2 [Example 170] | 43.5 | 0.401 | 5.29 | 4.11 | 1800 | 361
H-Y[Aib]QGTFTSDFS[Orn][αMeL]LDKK([AEEA-γGlu-C18 diacid])AQ[Aib]AFIEWLLEGGHSSGEPPPEGS-NH2 [Example 127] | 62.9 | 0.312 | 4.35 | 4.8 | 1010 | 1000
H-Y[Aib]QGTFTSDFS[Orn][αMeL]LDKK([AEEA-γGlu-C18 diacid])AQ[Aib]AFIEWLLEGGPSSGAPPPEGE-NH2 [Example 120] | 33.4 | 0.44 | 5.85 | 4.77 | 1540 | 664
H-Y[Aib]QGTFTSDFS[Orn][αMeL]LDKK([AEEA-γGlu-C18 diacid])AQ[Aib]AFIEWLLEGGPSSGAPPPEG[4Pal]-NH2 [Example 262] | 40.4 | 0.232 | 9.77 | 4.39 | 720 | 400
H-Y[Aib]QGTFTSDFS[Orn][αMeL]LDKK([AEEA-γGlu-C18 diacid])AQ[Aib]AFIEWLLEGGSSSGAPPPGGT-NH2 [Example 272] | 36.3 | 0.254 | 7.91 | 2.62 | 1540 | 486
H-Y[Aib]QGTFTSDFS[Orn][αMeL]LDKK([AEEA-γGlu-C18 diacid])AQ[Aib]AFIEWLLEGGSSSGAPPPSGH-NH2 [Example 270] | 36.5 | 0.26 | 5 | 3.2 | 1060 | 658
H-Y[Aib]QGTFTSDFS[Orn][αMeL]LDKK([AEEA-γGlu-C18 diacid])AQ[Aib]AFIEYLIE[Aib]SPSSGAPPPSGS-NH2 [Example 804] | 17.6 | 0.0751 | 11.5 | 0.915 | 2310 | 161
H-Y[Aib]QGTFTSDFS[Orn][αMeL]LDKK([AEEA-γGlu-C18 diacid])AQ[Aib]AFIEYLLAGGPSSGAPPPSGE[AEEA]-NH2 [Example 91] | 23.9 | 0.243 | 9.13 | 3.39 | 1200 | 356
H-Y[Aib]QGTFTSDFS[Orn][αMeL]LDKK([AEEA-γGlu-C18 diacid])AQ[Aib]AFIEYLLAGGPSSGAPPPSGSQ-OH [Example 88] | 24.7 | 0.177 | 7.48 | 3.45 | 915 | 363
H-Y[Aib]QGTFTSDFS[Orn][αMeL]LDKK([AEEA-γGlu-C18 diacid])AQ[Aib]AFIEYLLAGGPSSGAPPPSGS[AEEA]-NH2 [Example 89] | 19.3 | 0.167 | 11.6 | 3.31 | 916 | 458
H-Y[Aib]QGTFTSDFS[Orn][αMeL]LDKK([AEEA-γGlu-C18 diacid])AQ[Aib]AFIEYLLAGGPSSGEPPPEGS-NH2 [Example 152] | 23.2 | 0.259 | 6.91 | 4.03 | 1090 | 491
H-Y[Aib]QGTFTSDFS[Orn][αMeL]LDKK([AEEA-γGlu-C18 diacid])AQ[Aib]AFIEYLLEGGESSGAPPPGGS-NH2 [Example 161] | 87.3 | 0.555 | 4.83 | 5.22 | 902 | 963
H-Y[Aib]QGTFTSDFS[Orn][αMeL]LDKK([AEEA-γGlu-C18 diacid])AQ[Aib]AFIEYLLEGGESSGAPPPSGS-NH2 [Example 145] | 108 | 0.539 | 3.14 | 4.26 | 693 | 1480
H-Y[Aib]QGTFTSDFS[Orn][αMeL]LDKK([AEEA-γGlu-C18 diacid])AQ[Aib]AFIEYLLEGGPSSGAPPPEGT-NH2 [Example 160] | 44.4 | 0.354 | 4.32 | 5.39 | 479 | 482
H-Y[Aib]QGTFTSDFS[Orn][αMeL]LDKK([AEEA-γGlu-C18 diacid])AQ[Aib]AFIEYLLEGGPSSGAPPPGGE-NH2 [Example 63] | 40.4 | 0.255 | 4.1 | 4.78 | 709 | 348
H-Y[Aib]QGTFTSDFS[Orn][αMeL]LDKK([AEEA-γGlu-C18 diacid])AQ[Aib]AFIEYLLEGGPSSGAPPPGGQ-NH2 [Example 159] | 49.7 | 0.343 | 6.89 | 4.15 | 475 | 588
H-Y[Aib]QGTFTSDFS[Orn][αMeL]LDKK([AEEA-γGlu-C18 diacid])AQ[Aib]AFIEYLLEGGPSSGAPPPGGSE-NH2 [Example 65] | 30.2 | 0.739 | 6.49 | 4.21 | 808 | 462
H-Y[Aib]QGTFTSDFS[Orn][αMeL]LDKK([AEEA-γGlu-C18 diacid])AQ[Aib]AFIEYLLEGGPSSGAPPPGGSG-NH2 [Example 64] | 24.9 | 0.309 | 4.94 | 4.08 | 626 | 397
H-Y[Aib]QGTFTSDFS[Orn][αMeL]LDKK([AEEA-γGlu-C18 diacid])AQ[Aib]AFIEYLLEGGPSSGAPPPGG[4Pal]-NH2 [Example 261] | 38.4 | 0.29 | 5.49 | 3.12 | 520 | 383
